Test system: human PCSK9 locus
Assay: Secreted PCSK9 by ELISA (normalized to total cell count) in Huh7 cells transfected with mRNA and gRNA
Type: cell-based
Details: for Secreted PCSK9 / Percent reduction in PCSK9 secretion / Average percent reduction in PCSK9 secretion: Huh7 cells, 6 days post-transfection; for Secreted PCSK9: normalized to total cell count; for Percent reduction in PCSK9 secretion: relative to non-targeting gRNA control; for Average percent reduction in PCSK9 secretion: averaged from the two doses
Experimental: To assess PCSK9 secretion, seeded Huh7 cells were transfected with mRNA encoding a catalytically-active CasX 676, dXR1, or LTRP5-ADD-ZIM3 and a gRNA with scaffold 316 and spacer targeting either the B2M or PCSK9 locus. Media supernatant was harvested at 6, 18, 36, and 87 days post-transfection to assess level of PCSK9 secretion by ELISA. Levels of PCSK9 secretion were normalized to total cell count. As an additional control, PCSK9 secretion was also measured in the media supernatant harvested from wells containing untreated, naïve cells.
The following three human hepatocyte cancer cell lines were used in this experiment: HepG2 cells, Hep3B cells, and Huh7 cells. ˜15,000 cells of each cell line were seeded per well; the next day, seeded cells were transfected with mRNA encoding a catalytically-active CasX 676, dXR1, or LTRP5-ADD-ZIM3 and a gRNA with scaffold 316 and spacer targeting either the B2M or PCSK9 locus (see Table 23 for specific spacers and sequences). Media supernatant was harvested at 4 days post-transfection to assess level of PCSK9 secretion by ELISA, and levels of PCSK9 secretion were normalized to total cell count and illustrated in FIGS. 11A-11C. Culturing of treated Huh7 cells continued, and media supernatant was harvested at 14 and 27 days post-transfection for measuring PCSK9 secretion by ELISA. As an additional experimental control, PCSK9 secretion was also measured in the media supernatant harvested from wells containing untreated, naïve cells.
To assess PCSK9 secretion, seeded Huh7 cells were co-transfected with mRNA encoding for LTRP5-ADD-ZIM3 and a gRNA with scaffold 316 and spacer targeting the PCSK9 locus using Lipofectamine™ 3000. Two doses of total RNA input at a 2:1 mass ratio of mRNA to gRNA were used for screening: 50 ng mRNA: 25 ng gRNA and 25 ng mRNA: 12.5 ng gRNA. Media supernatant was harvested at 6 days post-transfection to assess level of PCSK9 secretion by ELISA (Table 74). Levels of PCSK9 secretion were normalized to total cell count. As an additional control, PCSK9 secretion was also measured in the media supernatant harvested from cells transfected with mRNA encoding for mScarlet.

[1] = 25 ng mRNA:12.5 ng gRNA, paired with LTRP5-ADD-ZIM3 mRNA
[2] = 50 ng mRNA:25 ng gRNA, paired with LTRP5-ADD-ZIM3 mRNA
[3] = paired with LTRP5-ADD-ZIM3 mRNA

| Sequence | Secreted PCSK9 [1] [ng/mL] | Percent reduction in PCSK9 secretion [1] [%] | Secreted PCSK9 [2] [ng/mL] | Percent reduction in PCSK9 secretion [2] [%] | Average percent reduction in PCSK9 secretion [3] [%] | average reduction in secreted PCSK9 levels (Huh7, LTRP5-ADD-ZIM3 mRNA + gRNA scaffold 316 (v1), 6 days, averaged from two doses (50 ng mRNA:25 ng gRNA, 25 ng:12.5 ng), relative to non-targeting gRNA) [%] | repression of PCSK9 secretion by spacer (Huh7, paired with LTRP5-ADD-ZIM3 mRNA, scaffold 316, days 4, 14, 27) |
| --- | --- | --- | --- | --- | --- | --- | --- |
| AAACUUAGCCUGGACCCCCU (listed as RNA, chemistry not given here) [spacer 6.140, Promoter] | 59.94 | 15.87 | 61.68 | 25.04 | 20.45 | – | – |
| ACUGGCCUUAACCUGGCAGC (listed as RNA, chemistry not given here) [spacer 6.141, Promoter] | 12.58 | 82.34 | 13.86 | 83.16 | 82.75 | 82.75 | – |
| ACUUUGUUUGCAAAGACCUC (listed as RNA, chemistry not given here) [spacer 6.117, Promoter] | 98.05 | 37.62 | 68.98 | 16.16 | 10.73 | – | – |
| AGAAAGAGCAAGCCUCAUGU (listed as RNA, chemistry not given here) [spacer 6.125, Promoter] | 46.11 | 35.28 | 24.93 | 69.7 | 52.49 | – | – |
| AGAAAUCAACUGGACAAGCA (listed as RNA, chemistry not given here) [spacer 6.128, Promoter] | 62.29 | 12.57 | 42.21 | 48.7 | 30.63 | – | – |
| AGAAGAUUCAAUUUGCAAAG (listed as RNA, chemistry not given here) [spacer 6.132, Promoter] | 75.01 | 5.29 | 56.68 | 31.11 | 12.91 | – | – |
| AGCCCAGUUAGGAUUUGGGA (listed as RNA, chemistry not given here) [spacer 6.149, Promoter] | 38.33 | 46.21 | 21.18 | 74.26 | 60.23 | – | – |
| AGGAGCAGCUAGUUGGUAAG (listed as RNA, chemistry not given here) [spacer 6.139, Promoter] | 25.45 | 64.28 | 15.03 | 81.73 | 73.01 | – | – |
| AGGGAUUUAUACUACAAAGA (listed as RNA, chemistry not given here) [spacer 6.138, Promoter] | 30.87 | 56.67 | 18.99 | 76.92 | 66.79 | – | most effective repression of PCSK9 secretion |
| CAGUACGUUCCAGGCAUUCA (listed as RNA, chemistry not given here) [spacer 6.171, Intron 1] | 55.95 | 21.46 | 52.41 | 36.3 | 28.88 | – | – |
| CAGUAUCGACAGCCCUUCCA (listed as RNA, chemistry not given here) [spacer 6.124, Promoter] | 30.59 | 57.06 | 16.54 | 79.9 | 68.48 | – | – |
| CCUUUGUUUCUUCCCAGUAU (listed as RNA, chemistry not given here) [spacer 6.122, Promoter] | 86.06 | 20.79 | 79.36 | 3.54 | 8.63 | – | – |
| CCUUUUCAUCCUCCUGCCUG (listed as RNA, chemistry not given here) [spacer 6.126, Promoter] | 44.82 | 37.09 | 23.48 | 71.46 | 54.27 | – | – |
| CGCGCCCUGCUCCUGAACUU (listed as RNA, chemistry not given here) [spacer 6.160, Exon 1] | 48.67 | 31.69 | 20.63 | 74.93 | 53.31 | – | – |
| CGGGGUUGGGAGACCCGGAG (listed as RNA, chemistry not given here) [spacer 6.169, Intron 1] | 62.55 | 12.2 | 66.39 | 19.3 | 15.75 | – | – |
| CUCGGAAUCUGCUGUGCAUC (listed as RNA, chemistry not given here) [spacer 6.120, Promoter] | 47.97 | 32.67 | 21.43 | 73.95 | 53.31 | – | – |
| CUCUGCGCGUAAUCUGACGC (listed as RNA, chemistry not given here) [spacer 6.151, Promoter] | 66.42 | 6.77 | 53.44 | 35.05 | 20.91 | – | – |
| GAAGUCUCACUGGUCAGCAG (listed as RNA, chemistry not given here) [spacer 6.146, Promoter] | 20.34 | 71.45 | 40.84 | 50.36 | 60.9 | – | – |
| GAAUCAAUCCUACUGUGGAC (listed as RNA, chemistry not given here) [spacer 6.143, Promoter] | 22.33 | 68.66 | 38.69 | 52.97 | 60.81 | – | – |
| GAAUUCUAUGGUAGGCACAA (listed as RNA, chemistry not given here) [spacer 6.134, Promoter] | 57.45 | 19.37 | 43.79 | 46.77 | 33.07 | – | – |
| GAGCAGGCCAUUUCACUCGG (listed as RNA, chemistry not given here) [spacer 6.119, Promoter] | 84.54 | 18.66 | 70.37 | 14.47 | 2.1 | – | – |
| GAGUGAAAUGGCCUGCUCUG (listed as RNA, chemistry not given here) [spacer 6.118, Promoter] | 54.78 | 23.11 | 35.5 | 56.86 | 39.99 | – | – |
| GCAGCGACGUCGAGGCGCUC (listed as RNA, chemistry not given here) [spacer 6.155, Exon 1] | 56.36 | 20.89 | 29.45 | 64.21 | 42.55 | – | – |

Source: patent publication US12551573B2, “Compositions and methods for the targeting of PCSK9” (Scribe Therapeutics Inc., priority 2022, dated 2026)
